From US20070093520A1, “Method of treatment of diarrhea-predominant irritable bowel syndrome in a subject” (priority 2005, published 2007)

System: diarrhea-predominant IBS subjects
Experiment: 3007 Study: open-label 52-week safety study, adverse events and withdrawals
Settings: Placebo/Cilansetron 2 mg

Cc1nccn1C[C@H]1CCc2c(c3cccc4c3n2CCC4)C1=O [cilansetron, (R)-(−)-4,5,6,8,9,10-hexahydro-10-[(2-methyl-1H-imidazol-1-yl)methyl]-11H-pyrido-[3,2,1-jk]-carbazol-11-one]
TEAE: Protein Urine Present: 1 (<1%) n (%)
TEAE: Pruritus Ani: 1 (<1%) n (%)
TEAE: Rectal Cramps: 0 n (%)
TEAE: Rectal Disorder NOS: 1 (<1%) n (%)
TEAE: Rectal Haemorrhage: 4 (1%) n (%)
TEAE: Rectal Tenesmus: 2 (<1%) n (%)
TEAE: Red Blood Cell Analyses: 0 n (%)
TEAE: Red Blood Cells Urine: 1 (<1%) n (%)
TEAE: Renal Bruit: 1 (<1%) n (%)
TEAE: Renal Function Analyses: 3 (1%) n (%)
TEAE: Reproductive Organ and Breast Histopathology Procedures: 0 n (%)
TEAE: Respiratory Tract Infection NOS: 0 n (%)
TEAE: Rheumatoid Arthritis: 1 (<1%) n (%)
TEAE: Rheumatoid Arthritis Aggravated: 1 (<1%) n (%)
TEAE: Rheumatoid Arthropathies: 2 (<1%) n (%)
TEAE: Rhinoviral Infections: 10 (4%) n (%)
TEAE: Rib Fracture: 0 n (%)
TEAE: Road Traffic Accident: 0 n (%)
TEAE: Rotator Cuff Syndrome: 1 (<1%) n (%)
TEAE: Seizures and Seizure Disorders NEC: 0 n (%)
TEAE: Sinus Headache: 0 n (%)
TEAE: Sinusitis Acute NOS: 1 (<1%) n (%)
TEAE: Sinusitis NOS: 13 (5%) n (%)
TEAE: Site Specific Injuries NEC: 0 n (%)
TEAE: Skeletal and Cardiac Muscle Analyses: 8 (3%) n (%)
TEAE: Skin Fungal Infection NOS: 0 n (%)
TEAE: Skin Infection NOS: 1 (<1%) n (%)
TEAE: Skin Structures and Soft Tissue Infections: 2 (<1%) n (%)
TEAE: Sleep Apnoea Syndrome: 2 (<1%) n (%)
TEAE: Sleep Apnoeas: 2 (<1%) n (%)
TEAE: Soft Tissue Disorders NEC: 0 n (%)
TEAE: Somnolence: 1 (<1%) n (%)
TEAE: Speech and Language Abnormalities: 1 (<1%) n (%)
TEAE: Spinal Cord and Nerve Root Disorders NEC: 1 (<1%) n (%)
TEAE: Spondylitic Myelopathy: 1 (<1%) n (%)
TEAE: Spondyloarthropathies: 0 n (%)
TEAE: Spondylosis: 0 n (%)
TEAE: Staphylococcal Infection NOS: 0 n (%)
TEAE: Staphylococcal Infections: 0 n (%)
TEAE: Status Epilepticus: 0 n (%)
TEAE: Stomach Discomfort: 1 (<1%) n (%)
TEAE: Streptococcal Infection NOS: 0 n (%)
TEAE: Streptococcal Infections: 3 (1%) n (%)
TEAE: Stress Fracture: 0 n (%)
TEAE: Temporomandibular Joint Disorder NOS: 0 n (%)
TEAE: Tendon Disorders: 3 (1%) n (%)
TEAE: Tendonitis: 2 (<1%) n (%)
TEAE: Tension Headaches: 0 n (%)
TEAE: Thoracic Cage Fractures and Dislocations: 0 n (%)
TEAE: Tinea Cruris: 1 (<1%) n (%)
TEAE: Tinea Infections: 1 (<1%) n (%)
TEAE: Tinea Pedis: 0 n (%)
TEAE: Tissue Enzyme Analyses NEC: 1 (<1%) n (%)
TEAE: Tongue Coated: 0 n (%)
TEAE: Tongue Signs and Symptoms: 0 n (%)
TEAE: Tooth Abscess: 1 (<1%) n (%)
TEAE: Tooth Disorder NOS: 0 n (%)
TEAE: Tooth Impacted: 0 n (%)
TEAE: Tooth Infection: 1 (<1%) n (%)
TEAE: Toothache: 1 (<1%) n (%)
TEAE: Total Number of Subjects with at Least One TEAE: 217 (78%) n (%)
TEAE: Transient Global Amnesia: 0 n (%)
TEAE: Tremor: 1 (<1%) n (%)
TEAE: Tremor (Excl Congenital): 1 (<1%) n (%)
TEAE: Trigger Finger: 1 (<1%) n (%)
TEAE: Triglyceride Analyses: 4 (1%) n (%)
TEAE: Umbilical Hernia NOS: 0 n (%)
TEAE: Umbilical Hernias: 0 n (%)
TEAE: Upper Limb Fractures and Dislocations: 1 (<1%) n (%)
TEAE: Upper Respiratory Tract Infection NOS: 8 (3%) n (%)
TEAE: Upper Respiratory Tract Infections - Pathogen Class Unspecified: 19 (7%) n (%)
TEAE: Urinalysis NEC: 6 (2%) n (%)
TEAE: Urinary Tract Infection NOS: 10 (4%) n (%)
TEAE: Urinary Tract Infections: 12 (4%) n (%)
TEAE: Urine Analysis Abnormal NOS: 0 n (%)
TEAE: Urine Bilirubin Increased: 1 (<1%) n (%)
TEAE: Urine Ketone Body Present: 2 (<1%) n (%)
TEAE: Urine Leukocyte Esterase Positive: 2 (<1%) n (%)
TEAE: Urobilin Urine Present: 0 n (%)
TEAE: Vascular Auscultatory Investigations: 2 (<1%) n (%)
TEAE: Vascular Tests NEC (Incl Blood Pressure): 2 (<1%) n (%)
TEAE: Vasovagal Attack: 0 n (%)
TEAE: Viral Infection NOS: 2 (<1%) n (%)
TEAE: Viral Infections NEC: 8 (3%) n (%)
TEAE: Vomiting NOS: 9 (3%) n (%)
TEAE: Weight Decreased: 1 (<1%) n (%)
TEAE: Weight Increased: 0 n (%)
TEAE: White Blood Cell Analyses: 1 (<1%) n (%)
TEAE: White Blood Cell Count Decreased: 0 n (%)
TEAE: White Blood Cells Urine Positive: 0 n (%)
TEAE leading to permanent discontinuation: Abdominal Distension (N=279): 2 (<1%) n (%)
TEAE leading to permanent discontinuation: Abdominal Pain Aggravated (N=279): 0 n (%)
TEAE leading to permanent discontinuation: Abdominal Pain Lower (N=279): 2 (<1%) n (%)
TEAE leading to permanent discontinuation: Abdominal Pain NOS (N=279): 6 (2%) n (%)
TEAE leading to permanent discontinuation: Abdominal Pain Upper (N=279): 3 (1%) n (%)
TEAE leading to permanent discontinuation: Alanine Aminotransferase Increased (N=279): 0 n (%)
TEAE leading to permanent discontinuation: Angina Pectoris (N=279): 0 n (%)
TEAE leading to permanent discontinuation: Appendicitis (N=279): 0 n (%)
TEAE leading to permanent discontinuation: Asthma Aggravated (N=279): 0 n (%)
TEAE leading to permanent discontinuation: Asthma NOS (N=279): 0 n (%)
TEAE leading to permanent discontinuation: Back Pain (N=279): 1 (<1%) n (%)
TEAE leading to permanent discontinuation: Bladder Prolapse (N=279): 1 (<1%) n (%)
TEAE leading to permanent discontinuation: Blood Bilirubin Increased (N=279): 0 n (%)
TEAE leading to permanent discontinuation: Blood Pressure Increased (N=279): 0 n (%)
TEAE leading to permanent discontinuation: Blood Urine Present (N=279): 0 n (%)
TEAE leading to permanent discontinuation: Bone Neoplasm Malignant (N=279): 0 n (%)
TEAE leading to permanent discontinuation: Cardiac Disorders (N=279): 0 n (%)
TEAE leading to permanent discontinuation: Chest Discomfort (N=279): 1 (<1%) n (%)
TEAE leading to permanent discontinuation: Chest Pain (N=279): 1 (<1%) n (%)
TEAE leading to permanent discontinuation: Chest Wall Pain (N=279): 1 (<1%) n (%)
TEAE leading to permanent discontinuation: Colitis Ischaemic (N=279): 1 (<1%) n (%)
TEAE leading to permanent discontinuation: Constipation (N=279): 21 (8%) n (%)
TEAE leading to permanent discontinuation: Cough (N=279): 1 (<1%) n (%)
TEAE leading to permanent discontinuation: Dehydration (N=279): 0 n (%)
TEAE leading to permanent discontinuation: Depression (N=279): 1 (<1%) n (%)
TEAE leading to permanent discontinuation: Diarrhoea Aggravated (N=279): 1 (<1%) n (%)
TEAE leading to permanent discontinuation: Diarrhoea Haemorrhagic (N=279): 1 (<1%) n (%)
TEAE leading to permanent discontinuation: Diarrhoea NOS (N=279): 2 (<1%) n (%)
TEAE leading to permanent discontinuation: Dizziness (N=279): 2 (<1%) n (%)
TEAE leading to permanent discontinuation: Dyspepsia (N=279): 1 (<1%) n (%)
TEAE leading to permanent discontinuation: Ear and Labyrinth Disorders (N=279): 0 n (%)
TEAE leading to permanent discontinuation: Epigastric Discomfort (N=279): 1 (<1%) n (%)
TEAE leading to permanent discontinuation: Eructation (N=279): 0 n (%)
TEAE leading to permanent discontinuation: Eye Disorders (N=279): 1 (<1%) n (%)
TEAE leading to permanent discontinuation: Faecal Abnormality NOS (N=279): 0 n (%)
TEAE leading to permanent discontinuation: Faecal Impaction (N=279): 1 (<1%) n (%)
TEAE leading to permanent discontinuation: Faecal Incontinence (N=279): 1 (<1%) n (%)
TEAE leading to permanent discontinuation: Faeces Hard (N=279): 0 n (%)
TEAE leading to permanent discontinuation: Fatigue (N=279): 1 (<1%) n (%)
TEAE leading to permanent discontinuation: Fibroma NOS (N=279): 1 (<1%) n (%)
TEAE leading to permanent discontinuation: Flatulence (N=279): 5 (2%) n (%)
TEAE leading to permanent discontinuation: Gastric Irritation (N=279): 0 n (%)
TEAE leading to permanent discontinuation: Gastrointestinal Disorders (N=279): 40 (14%) n (%)
TEAE leading to permanent discontinuation: Gastrointestinal Motility Disorder NOS (N=279): 1 (<1%) n (%)
TEAE leading to permanent discontinuation: General Disorders and Administration Site Conditions (N=279): 4 (1%) n (%)
TEAE leading to permanent discontinuation: Haemorrhoidal Haemorrhage (N=279): 1 (<1%) n (%)
TEAE leading to permanent discontinuation: Hallucination NOS (N=279): 1 (<1%) n (%)
TEAE leading to permanent discontinuation: Hallucination, Auditory (N=279): 1 (<1%) n (%)
TEAE leading to permanent discontinuation: Headache NOS (N=279): 3 (1%) n (%)
TEAE leading to permanent discontinuation: Headache NOS Aggravated (N=279): 0 n (%)
TEAE leading to permanent discontinuation: Heart Rate Increased (N=279): 0 n (%)
TEAE leading to permanent discontinuation: Hepatobiliary Disorders (N=279): 0 n (%)
TEAE leading to permanent discontinuation: Hepatosplenomegaly NOS (N=279): 0 n (%)
TEAE leading to permanent discontinuation: Hiatus Hernia (N=279): 0 n (%)
TEAE leading to permanent discontinuation: Investigations (N=279): 0 n (%)
TEAE leading to permanent discontinuation: Irritable Bowel Syndrome Aggravated (N=279): 0 n (%)
TEAE leading to permanent discontinuation: Lethargy (N=279): 1 (<1%) n (%)
TEAE leading to permanent discontinuation: Metabolism and Nutrition Disorders (N=279): 0 n (%)
TEAE leading to permanent discontinuation: Migraine NOS (N=279): 0 n (%)
TEAE leading to permanent discontinuation: Muscle Cramps (N=279): 0 n (%)
TEAE leading to permanent discontinuation: Musculoskeletal and Connective Tissue Disorders (N=279): 2 (<1%) n (%)
TEAE leading to permanent discontinuation: Nausea (N=279): 0 n (%)
TEAE leading to permanent discontinuation: Neoplasms Benign, Malignant and Unspecified (Incl Cysts and Polyps) (N=279): 3 (1%) n (%)
TEAE leading to permanent discontinuation: Nervous System Disorders (N=279): 4 (1%) n (%)
TEAE leading to permanent discontinuation: Pregnancy, Puerperium and Perinatal Conditions (N=279): 0 n (%)
TEAE leading to permanent discontinuation: Pruritus NOS (N=279): 0 n (%)
TEAE leading to permanent discontinuation: Psychiatric Disorders (N=279): 1 (<1%) n (%)
TEAE leading to permanent discontinuation: Psychotic Disorder NOS (N=279): 1 (<1%) n (%)
TEAE leading to permanent discontinuation: Rash Macular (N=279): 1 (<1%) n (%)
TEAE leading to permanent discontinuation: Rash NOS (N=279): 1 (<1%) n (%)
TEAE leading to permanent discontinuation: Rectal Disorder NOS (N=279): 1 (<1%) n (%)
TEAE leading to permanent discontinuation: Rectal Haemorrhage (N=279): 2 (<1%) n (%)
TEAE leading to permanent discontinuation: Rectal Tenesmus (N=279): 1 (<1%) n (%)
TEAE leading to permanent discontinuation: Renal and Urinary Disorders (N=279): 1 (<1%) n (%)
TEAE leading to permanent discontinuation: Respiratory, Thoracic and Mediastinal Disorders (N=279): 1 (<1%) n (%)
TEAE leading to permanent discontinuation: Skin and Subcutaneous Tissue Disorders (N=279): 3 (1%) n (%)
TEAE leading to permanent discontinuation: Somnolence (N=279): 0 n (%)
TEAE leading to permanent discontinuation: Stomach Discomfort (N=279): 1 (<1%) n (%)
TEAE leading to permanent discontinuation: Suicidal Ideation (N=279): 1 (<1%) n (%)
